Drawing on BindingDB's records for doi:10.1074/jbc.M109.017632 (University of California San Francisco, 2009), this text covers Kd for six compounds.

Usually Kd stands for the free concentration of one partner at which half of the binding sites on the other are occupied at equilibrium, for simple one-to-one binding.

The structures appear in SMILES notation.

Holding throughout (experiment): Binding Assay
Assay [1] deals with T1, Cytochrome P450 130 (Mycobacterium tuberculosis (strain ATCC 25618 / H37Rv), UniProt P9WPN5).
T1 sequence (P9WPN5 whole entry): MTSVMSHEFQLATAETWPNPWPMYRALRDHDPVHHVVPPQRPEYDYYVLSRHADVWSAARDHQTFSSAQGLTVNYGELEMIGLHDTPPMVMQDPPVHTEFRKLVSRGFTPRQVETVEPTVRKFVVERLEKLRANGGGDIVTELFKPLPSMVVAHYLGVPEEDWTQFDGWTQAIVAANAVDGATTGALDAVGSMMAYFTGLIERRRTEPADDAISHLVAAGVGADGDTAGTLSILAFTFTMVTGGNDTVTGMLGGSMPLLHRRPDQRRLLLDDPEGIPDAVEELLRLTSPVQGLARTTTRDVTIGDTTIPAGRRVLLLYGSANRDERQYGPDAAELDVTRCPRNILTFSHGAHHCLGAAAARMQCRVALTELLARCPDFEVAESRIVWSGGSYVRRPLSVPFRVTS
The text has this: (§1) Binding assay using CYP130, CYP130 (G234) or CYP142.

Assay [2] deals with T2, Cytochrome P450 130 (Mycobacterium tuberculosis (strain CDC 1551 / Oshkosh), UniProt P9WPN4).
T2 sequence (P9WPN4 whole entry): T1 sequence (P9WPN5 whole entry)
Excerpt: as §1

The target in assay [3] is T3, Steroid C26-monooxygenase (Mycobacterium tuberculosis (strain CDC 1551 / Oshkosh), UniProt P9WPL4).
T3 sequence (P9WPL4 whole entry): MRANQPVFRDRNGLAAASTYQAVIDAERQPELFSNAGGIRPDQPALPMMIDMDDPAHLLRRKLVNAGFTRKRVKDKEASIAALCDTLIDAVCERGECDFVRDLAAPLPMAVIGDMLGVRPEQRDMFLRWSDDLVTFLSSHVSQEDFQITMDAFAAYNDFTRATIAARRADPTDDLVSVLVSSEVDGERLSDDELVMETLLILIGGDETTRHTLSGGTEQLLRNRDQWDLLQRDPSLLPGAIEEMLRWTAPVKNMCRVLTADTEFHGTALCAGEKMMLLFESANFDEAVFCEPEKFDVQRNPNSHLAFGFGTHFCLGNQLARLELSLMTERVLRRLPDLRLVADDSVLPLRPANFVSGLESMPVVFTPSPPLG
Excerpt: as §1

For `Clc1ccc(COC(Cn2ccnc2)c2ccc(Cl)cc2Cl)cc1` (stereo unspecified) [ECONAZOLE], the results for the equilibrium dissociation constant (Kd) in assay [1], in assay [2] and in assay [3] were 4.5 µM, 1.93 µM and 0.33 µM, respectively.

As for `Nc1ccc(Sc2ccc(N3C(=O)c4ccc(N)cc4C3=O)cc2)cc1` [Arylamine compound 2], the Kd was determined as 4.9 µM in assay [1], 1.08 µM in assay [2] and 0.17 µM in assay [3].

Take `NCc1ccccc1`: the Kd in assay [1] is 10000 µM; in assay [2], 9990 µM; in assay [3], 0.1 µM.

Take `Nc1ccccc1` [Aniline]: the Kd in assay [1] was found to be 2500 µM; in assay [2], 55.2 µM; in assay [3], 59.2 µM.

As to `Clc1ccccc1C(c1ccccc1)(c1ccccc1)n1ccnc1`, the values for the Kd in assay [1] and in assay [2] were 6.1 µM and 13.3 µM, respectively.

In the case of `Cc1cccc(-n2cnc3cc(N)ccc32)c1` [Arylamine compound 4], the figures for the Kd in assay [1] and in assay [2] were 32.6 µM and 4.8 µM, respectively.
